From publication PMC6273912, “Novel 5-Substituted 2-(Aylmethylthio)-4-chloro-N-(5-aryl-1,2,4-triazin-3-yl)benzenesulfonamides: Synthesis, Molecular Structure, Anticancer Activity, Apoptosis-Inducing Activity and Metabolic Stability” (Molecules, 2016)

Legend:
HeLa [1] = assay: Cell cycle analysis (sub-G1, DAPI flow cytometry), HeLa; assay type: cell-based, human; settings: 24 h, dose dependent increase, mean ± SD
Procedure: (§1) One of the most common mechanisms in anticancer drug treatment is changes in cell cycle, which can be measured by DNA content. Cell cycle distribution in HCT-116, HeLa and MCF-7 cells was examined to determine cycle arrest and/or presence of sub-G1 after treatment with compounds 37 and 46. […] Cell populations data are expressed as the mean ± SD of at least three independent experiments.
(§2) Following treatment, cells were fixed in cold 70% ethanol for 30 min. Fixed cells were stained for 15 min in buffer containing 500 μg/mL RNAse A (EURx, Gdansk, Poland) and 2.5 μg/mL of DAPI (Sigma-Aldrich, Munich, Germany). The fluorescence of DAPI was measured at 440 ± 40 nm with a flow cytometer (LSR II, BD Biosciences, Mountain View, CA, USA). Each experiment was performed at least in triplicate. Data were analyzed off-line using the BD FACSDiva (BD Biosciences).

[2] = system: active caspases (caspases 1 through 9) in HeLa cells; assay: Caspase activity (FAM-VAD-FMK, flow cytometry), HeLa; assay type: cell-based, human; settings: 100 μM, increase over control
Procedure: Caspase activation plays a central role in the execution of apoptosis and is required for the occurrence of its biochemical and morphological hallmarks, such as DNA fragmentation, formation of apoptotic bodies and chromatin condensation. The ability of the examined compounds to induce caspase activity was determined with the use of a fluorescent labeled caspase inhibitor, a carboxyfluorescein (FAM) derivative of valylalanylaspartic acid (VAD) fluoromethyl ketone (FMK).
FAM-VAD-FMK contains a target sequence recognized by active caspases (caspases 1 through 9). Binding to this sequence inhibits the enzymatic activity of caspases and allows for the determination of their activity through the direct measurement of fluorescent intensity of the bound inhibitor. […] The strongest influence on caspase activation was noticed for the HeLa cell line, where that cell population increased by 31% in the presence of 37 at a concentration of 100 μM.
Caspase activity was determined with the FLICA Apoptosis Detection Kit (Immunochemistry Technologies, Bloomington, MN, USA) according to the manufacturer’s instructions. […] The fluorescence intensity of fluorescein was determined with flow cytometry (BD FACSCalibur) and caspase activity was determined as the amount of fluorescence emitted from caspase inhibitors bound to the caspases.

HeLa [3] = assay: Mitochondrial membrane potential (JC-1), HeLa; assay type: cell-based, human; settings: 24 h, low and moderate concentrations
Procedure: (§3) Loss of the mitochondrial membrane potential (Δψm) is one of the earliest indicators of an apoptosis. It can be detected using fluorescent dye JC-1 (5,5′,6,6′-tetrachloro-1,1′,3,3′-tetraethylbenzimidazolylcarbocyanine iodide) exited with blue laser. JC-1 spontaneously forms dimer complexes (J aggregates) with red fluorescent or remain as a monomers with green fluorescence in cells with high and low Δψm, respectively.
(§4) Half an hour before the end of 24 h-treatment 2.5 μg/mL of JC-1 (5,5′,6,6′-tetrachloro-1,1′,3,3′-tetraethylbenzimidazolylcarbocyanine iodide) was added to the cell medium. As a negative control 100 μM CCCP (carbonyl cyanide 3-chlorophenylhydrazone) was used 15 min before JC-1 treatment. Following treatment cells were twice washed with PBS and analyzed with flow cytometer (LSR II, BD Biosciences).
(§5) Green and red fluorescence were observed using FL-1 (530 ± 30 nm) and FL-2 (585 ± 42 nm) channels, respectively. Percentage of cell population in red or green fluorescence gate indicated the level of Δψm. Decreasing red fluorescence cell population indicated lower Δψm.

HeLa (cervical cancer) = assay: MTT cell viability assay, HeLa; assay type: cell-based, human; settings: 72 h of incubation, mean ± SD
Procedure: (§6) All chemicals, if not stated otherwise, were obtained from Sigma-Aldrich (St. Louis, MO, USA). The MCF-7 cell line was purchased from Cell Lines Services (Eppelheim, Germany), the HeLa and HCT-116 cell lines were obtained from the Department of Microbiology, Tumor and Cell Biology, Karolinska Institute (Stockholm, Sweden). Cells were cultured in Dulbecco’s modified Eagle’s medium (DMEM) supplemented with 10% fetal bovine serum, 2 mM glutamine, 100 units/mL penicillin, and 100 μg/mL streptomycin. Cultures were maintained in a humidified atmosphere with 5% CO2 at 37 °C in an incubator (HeraCell, Heraeus, Langenselbold, Germany).
(§7) Cell viability was determined using the MTT (3-(4,5-dimethylthiazol-2-yl)-2,5-diphenyl-tetrazoliumbromide) assay. Stock solutions of the studied compounds were prepared in 100% DMSO. […] Cells were seeded in 96-well plates at a density of 5 × 10^3 cells/well and treated for 72 h with the examined compounds in the concentration range 1–100 μM (1, 10, 25, 50 and 100 μM). Following treatment, MTT (0.5 mg/mL) was added to the medium and cells were further incubated for 2 h at 37 °C. Cells were lysed with DMSO and the absorbance of the formazan solution was measured at 550 nm with a plate reader (1420 multilabel counter, Victor, Jügesheim, Germany). […] The experiment was performed in triplicate. Values are expressed as the mean ± SD of at least three independent experiments.

HCT-116 (colon cancer) = assay: MTT cell viability assay, HCT-116; assay type: cell-based, human; settings: 72 h of incubation, mean ± SD
Procedure: as §6, §7

HCT-116 [4] = assay: Cell cycle analysis (sub-G1, DAPI flow cytometry), HCT-116; assay type: cell-based, human; settings: HCT-116, 24 h, dose dependent increase, mean ± SD
Procedure: as §1, §2

HeLa [5] = assay: Cell morphology (light microscope), HeLa; assay type: cell-based, human; settings: 25–100 μM, 24 h
Procedure: (§8) To evaluate the changes in morphology of the treated cells, they were incubated with increasing concentrations of 37 (HCT-116, HeLa) or 46 (MCF-7) for 24 h and observed using light microscope.
(§9) The HCT-116, HeLa and MCF-7cells were seeded on 24-well plates (5 × 10^4/per well) in 300 μL of medium and incubated with 37 (HCT-116, HeLa) or 46 (MCF-7) for 24 h. Cells incubated with increasing concentrations of compounds (25–100 μM) were observed after 24 h using light microscope Axiovert 200 (Zeiss, Oberkochen, Germany).

HCT-116 [6] = assay: Mitochondrial membrane potential (JC-1), HCT-116; assay type: cell-based, human; settings: HCT-116, 24 h, low and moderate concentrations
Procedure: as §3, §4, §5

HCT-116, HeLa and MCF-7 = assay: MTT cell viability assay, all tested cell lines together; assay type: cell-based; settings: Homo sapiens; average over HCT-116, HeLa and MCF-7; read-out: average IC50 against all tested cell lines
Procedure: as §6, §7

HCT-116 [7] = assay: Cell morphology (light microscope), HCT-116; assay type: cell-based, human; settings: HCT-116, 25–100 μM, 24 h
Procedure: as §8, §9

- IC50 (HeLa (cervical cancer)): 34 ± 2 µM
- IC50 (HeLa (cervical cancer); Homo sapiens, 72 h): 34 to 42 µM
- IC50 (HCT-116 (colon cancer)): 36 ± 1 µM
- IC50 (HCT-116 (colon cancer); Homo sapiens, HCT-116, 72 h): 36 to 38 µM
- IC50 (HCT-116, HeLa and MCF-7): 47 µM
SMILES: Cc1cc(S(=O)(=O)Nc2nncc(-c3ccc(C(F)(F)F)cc3)n2)c(SCc2cccc3ccccc23)cc1Cl [Compound 37, 4-Chloro-5-methyl-2-[(naphthalene-1-yl)methylthio]-N-[5-(4-trifluoromethylphenyl)-1,2,4-triazin-3-yl]-benzenesulfonamide]
- Sub-G1 cell population (HeLa [1]): 21% ± 3.4%
- increase of cell population with activated caspases [2]: 31%
- effect on mitochondrial membrane potential (Δψm) (HeLa [3]): remarkably decreased Δψm
- Sub-G1 cell population (HCT-116 [4]): 48.6% ± 13.5%
- morphological changes (HeLa [5]): shrinkage of the cells, detachment from the surface
- effect on mitochondrial membrane potential (Δψm) (HCT-116 [6]): remarkably decreased Δψm
- morphological changes (HCT-116 [7]): shrinkage of the cells, detachment from the surface
